From ChEMBL document CHEMBL1201862, “PubChem BioAssay data set” (2004) come the findings set out here.

Structures are written as SMILES.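 A five-concentration, 48-hour dose response in 96-well plates underlies each endpoint, interpolated linearly between surrounding concentrations. GI50 is the concentration that inhibits growth by half.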 Activity calls are given as the source filed them. Cut-off read from the data, not from the text of the source: active = GI50 up to about 1.1 µM and inactive = higher. Bounds are passed on as bounds.

Common to all, as to assay: NCI tumour cell line growth inhibition, 48 h
Test [1] relates to CCRF-CEM.
Test [2] relates to EKVX.
Test [3] concerns HL-60.
In test [4] the test system is HCT-15.
In test [5] the test system is 786-0.
Test [6] concerns NCI/ADR-RES.
The test system of test [7] is A498.
Test [8] has as its system HCT-116.
The subject of test [9] is TK-10.
Test [10] deals with MDA-MB-231.
The subject of test [11] is NCI-H522.
For test [12], the system named is UACC-62.
In test [13] the test system is OVCAR-4.
Test [14] relates to CAKI-1.
The subject of test [15] is MOLT-4.
Test [16] relates to SK-MEL-5.
Test [17] has as its system Hs-578T.
Test [18] has as its system OVCAR-5.
In test [19] the test system is COLO 205.
In test [20] the test system is RXF 393.

As to `O=C1C=CC(=O)c2ncccc21`, the GI50 was 0.787 µM (active) in test [1]; 3.37 µM (inactive) in test [2]; 0.31 µM (active) in [3]; 2.08 µM in test [4]; 2.71 µM (inactive) in test [5]; 11.3 µM (inactive) in test [6]. The GI50 is 13.8 µM (inactive) in test [7]; 1.89 µM (inactive) in test [8]; 6.28 µM (inactive) in [9]; 2.47 µM (inactive) in [10]; 1.89 µM (inactive) in test [11]; 2.99 µM (inactive) in test [12]. The GI50 is 5.16 µM (inactive) in [13]; 1.8 µM (inactive) in [14]; 2.36 µM (inactive) in [15]; 6.5 µM (inactive) in test [16]; 10.2 µM (inactive) in test [17]; 17.5 µM (inactive) in test [18]. The GI50 is 2.58 µM (inactive) in [19] and 6.01 µM (inactive) in [20].
Take `S=C1NC(c2ccccc2)NC(c2ccccc2)S1` (stereo not given): the GI50 in [1] was 2.2 µM (inactive); in test [2], > 100 µM (inactive); in test [3], > 100 µM (inactive); in [4], 51.1 µM; in test [5], > 100 µM (inactive); in test [6], > 100 µM (inactive). Moreover, the GI50 in test [7] is > 100 µM (inactive); in test [8] it was > 100 µM (inactive); in [9], > 100 µM (inactive); in test [10] it was > 100 µM (inactive); in test [11], 41.6 µM (inactive); in [12] it was 55 µM (inactive). The GI50 in test [13], in test [14], in test [15], in test [16], in [17] and in [18] was > 100 µM (inactive) each time. Besides, the GI50 in test [19] and in [20] was > 100 µM (inactive) in each case.
As to `O=C1NC2=NOC(=O)NC2=NO1`, the GI50 in [1] was > 200 µM (inactive); in [2], > 200 µM (inactive); in test [3], > 200 µM (inactive); in test [4], over 200 µM; in test [5] it was > 200 µM (inactive); in test [6], > 200 µM (inactive). The GI50 in [7], in test [8], in test [9], in [10], in test [11] and in test [12] was > 200 µM (inactive) each time. The GI50 in test [13], in test [14], in [15], in [16], in [17] and in test [18] was > 200 µM (inactive) in each case. In addition, the GI50 in test [19] and in test [20] was > 200 µM (inactive) each time.
As to `CC12CCCCC1=C(F)C(F)(F)S2` (stereo not given), the GI50 in test [1] was 8.65 µM (inactive); in test [2], > 78.7 µM (inactive); in test [3] it was 6.64 µM (inactive); in test [4] it was 32.7 µM; in [5] it was 20.8 µM (inactive); in test [6] it was 40.1 µM (inactive). The GI50 in test [7] is > 100 µM (inactive); in test [8], 22.1 µM (inactive); in test [9], 39.2 µM (inactive); in test [10], 83.9 µM (inactive); in [11], 21.5 µM (inactive); in [12], 42.4 µM (inactive). In addition, the GI50 in test [13] was 48.3 µM (inactive); in [14], 21.5 µM (inactive); in test [15], 11.3 µM (inactive); in [16], 46.3 µM (inactive); in test [17], > 21.5 µM (inactive); in test [18], 62.5 µM (inactive). Besides, the GI50 in [19] is 15.1 µM (inactive); in [20], 20.5 µM (inactive).
